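Grown in 96-well plates, cells were treated for 48 hours with each compound at five concentrations. Insufficient inhibition: endpoint recorded as highest concentration tested. The concentration for 50% growth inhibition is given as GI50.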 Calls of active or inactive are those of the source. No stated cut-off is given here; in the data, active = GI50 up to about 1.1 µM and inactive = higher.
Assays:
Assay in all cases: growth of human tumour cells (NCI), 48 h
UACC-257 = tested on: UACC-257
CAKI-1 = tested on: CAKI-1
SF-539 = tested on: SF-539
OVCAR-5 = tested on: OVCAR-5
HCC 2998 = tested on: HCC 2998
BT-549 = tested on: BT-549
HOP-92 = tested on: HOP-92
HCT-116 = tested on: HCT-116
HT-29 = tested on: HT-29
SF-268 = tested on: SF-268
RXF 393 = tested on: RXF 393
DU-145 = tested on: DU-145
A498 = tested on: A498
SK-MEL-28 = tested on: SK-MEL-28
SF-295 = tested on: SF-295
HCT-15 = tested on: HCT-15
CCRF-CEM = tested on: CCRF-CEM
A549 = tested on: A549
IGROV-1 = tested on: IGROV-1
ACHN = tested on: ACHN
OVCAR-8 = tested on: OVCAR-8
TK-10 = tested on: TK-10
OVCAR-3 = tested on: OVCAR-3
U-251 = tested on: U-251
SK-MEL-2 = tested on: SK-MEL-2
MOLT-4 = tested on: MOLT-4
Malme-3M = tested on: Malme-3M
SNB-19 = tested on: SNB-19
KM12 = tested on: KM12
UO-31 = tested on: UO-31
MDA-MB-435 = tested on: MDA-MB-435
PC-3 = tested on: PC-3
NCI-H460 = tested on: NCI-H460
MCF7 = tested on: MCF7
SR = tested on: SR
Hs-578T = tested on: Hs-578T
HL-60 = tested on: HL-60
NCI-H23 = tested on: NCI-H23
SK-OV-3 = tested on: SK-OV-3
K562 = tested on: K562
OVCAR-4 = tested on: OVCAR-4
NCI/ADR-RES = tested on: NCI/ADR-RES
MDA-N = tested on: MDA-N
NCI-H522 = tested on: NCI-H522
UACC-62 = tested on: UACC-62
MDA-MB-231 = tested on: MDA-MB-231
NCI-H226 = tested on: NCI-H226
COLO 205 = tested on: COLO 205
EKVX = tested on: EKVX
SW-620 = tested on: SW-620
SN12C = tested on: SN12C
T47D = tested on: T47D
LOX IMVI = tested on: LOX IMVI
SNB-75 = tested on: SNB-75
RPMI-8226 = tested on: RPMI-8226
786-0 = tested on: 786-0
M14 = tested on: M14
SK-MEL-5 = tested on: SK-MEL-5
HOP-62 = tested on: HOP-62

SMILES: Cc1cccc2c(NCCCN(C)C)c3c([N+](=O)[O-])ccc(C)c3nc12
- GI50 (UACC-257): 0.192 µM (active)
- GI50 (CAKI-1): 0.2 µM (active)
- GI50 (SF-539): 0.263 µM (active)
- GI50 (OVCAR-5): 0.264 µM (active)
- GI50 (HCC 2998): < 0.0255 µM (active)
- GI50 (BT-549): 0.256 µM (active)
- GI50 (HOP-92): 0.0916 µM (active)
- GI50 (HCT-116): 0.1 µM (active)
- GI50 (HT-29): 0.0809 µM (active)
- GI50 (SF-268): 0.198 µM (active)
- GI50 (RXF 393): 0.0647 µM (active)
- GI50 (DU-145): 0.0887 µM (active)
- GI50 (A498): < 0.01 µM (active)
- GI50 (SK-MEL-28): 2.32 µM (inactive)
- GI50 (SF-295): 0.0689 µM (active)
- GI50 (HCT-15): 0.0435 µM
- GI50 (CCRF-CEM): 0.423 µM (active)
- GI50 (A549): 0.101 µM (active)
- GI50 (IGROV-1): 0.0574 µM (active)
- GI50 (ACHN): 0.0908 µM (active)
- GI50 (OVCAR-8): 0.206 µM (active)
- GI50 (TK-10): 0.252 µM (active)
- GI50 (OVCAR-3): 0.109 µM (active)
- GI50 (U-251): 0.147 µM (active)
- GI50 (SK-MEL-2): 0.132 µM (active)
- GI50 (MOLT-4): 0.0178 µM (active)
- GI50 (Malme-3M): 0.175 µM (active)
- GI50 (SNB-19): 0.192 µM (active)
- GI50 (KM12): 0.103 µM (active)
- GI50 (UO-31): 0.216 µM (active)
- GI50 (MDA-MB-435): 0.191 µM (active)
- GI50 (PC-3): 0.0494 µM (active)
- GI50 (NCI-H460): < 0.0241 µM (active)
- GI50 (MCF7): < 0.0161 µM (active)
- GI50 (SR): < 0.0154 µM (active)
- GI50 (Hs-578T): 0.439 µM (active)
- GI50 (HL-60): 0.203 µM (active)
- GI50 (NCI-H23): 0.034 µM (active)
- GI50 (SK-OV-3): 0.278 µM (active)
- GI50 (K562): 0.115 µM (active)
- GI50 (OVCAR-4): 0.0628 µM (active)
- GI50 (NCI/ADR-RES): 0.337 µM (active)
- GI50 (MDA-N): 0.196 µM (active)
- GI50 (NCI-H522): < 0.0326 µM (active)
- GI50 (UACC-62): 0.144 µM (active)
- GI50 (MDA-MB-231): 0.217 µM (active)
- GI50 (NCI-H226): 0.194 µM (active)
- GI50 (COLO 205): 0.0802 µM (active)
- GI50 (EKVX): 0.0855 µM (active)
- GI50 (SW-620): 0.0659 µM (active)
- GI50 (SN12C): 0.221 µM (active)
- GI50 (T47D): 0.0879 µM (active)
- GI50 (LOX IMVI): 0.197 µM (active)
- GI50 (SNB-75): 0.186 µM (active)
- GI50 (RPMI-8226): 0.19 µM (active)
- GI50 (786-0): 0.0689 µM (active)
- GI50 (M14): 0.132 µM (active)
- GI50 (SK-MEL-5): 0.082 µM (active)
- GI50 (HOP-62): 0.047 µM (active)

From ChEMBL document CHEMBL1201862, “PubChem BioAssay data set” (2004)
